Assay results from PubChem BioAssay (NCI).
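Growth conditions: 96-well plates. Treatment: test compound, 48 hours, 5 concentrations. Analysis: linear interpolation between bracketing concentrations; unreached endpoints set to highest concentration. At the GI50, growth is halved. TGI: concentration producing complete growth inhibition.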

How the values were obtained:
Experiment in all cases: NCI anticancer screen, dose series, 48 h
RXF 393 renal = test system: RXF 393 renal
SF-268 CNS = test system: SF-268 CNS
NCI/ADR-RES ovarian = test system: NCI/ADR-RES ovarian
KM12 colon = test system: KM12 colon
SW-620 colon = test system: SW-620 colon
HOP-62 NSCLC = test system: HOP-62 NSCLC
UACC-257 melanoma = test system: UACC-257 melanoma
SK-OV-3 ovarian = test system: SK-OV-3 ovarian
NCI-H460 lung = test system: NCI-H460 lung
M14 melanoma = test system: M14 melanoma
ACHN renal = test system: ACHN renal
SNB-75 CNS = test system: SNB-75 CNS
SF-539 CNS = test system: SF-539 CNS
TK-10 renal = test system: TK-10 renal
SNB-19 CNS = test system: SNB-19 CNS
HCC-2998 colon = test system: HCC-2998 colon
MOLT-4 leukemia = test system: MOLT-4 leukemia
NCI-H522 lung = test system: NCI-H522 lung
MDA-MB-231 breast = test system: MDA-MB-231 breast
IGROV1 ovarian = test system: IGROV1 ovarian
HS 578T breast = test system: HS 578T breast
BT-549 breast = test system: BT-549 breast
UACC-62 melanoma = test system: UACC-62 melanoma
HT29 colon = test system: HT29 colon
UO-31 renal = test system: UO-31 renal
K-562 leukemia = test system: K-562 leukemia
LOX IMVI melanoma = test system: LOX IMVI melanoma
OVCAR-4 ovarian = test system: OVCAR-4 ovarian
SF-295 CNS = test system: SF-295 CNS
HCT-15 colon = test system: HCT-15 colon
EKVX NSCLC = test system: EKVX NSCLC
U251 CNS = test system: U251 CNS
COLO 205 colon = test system: COLO 205 colon
DU-145 prostate = test system: DU-145 prostate
SK-MEL-28 melanoma = test system: SK-MEL-28 melanoma
MDA-MB-435 = test system: MDA-MB-435
HCT-116 colon = test system: HCT-116 colon
OVCAR-5 ovarian = test system: OVCAR-5 ovarian
NCI-H226 lung = test system: NCI-H226 lung
SN12C renal = test system: SN12C renal
HL-60(TB) leukemia = test system: HL-60(TB) leukemia
MALME-3M melanoma = test system: MALME-3M melanoma
OVCAR-3 ovarian = test system: OVCAR-3 ovarian
OVCAR-8 ovarian = test system: OVCAR-8 ovarian
A549 NSCLC = test system: A549 NSCLC
SK-MEL-2 melanoma = test system: SK-MEL-2 melanoma
786-0 renal = test system: 786-0 renal
SK-MEL-5 melanoma = test system: SK-MEL-5 melanoma
MCF7 breast = test system: MCF7 breast
A498 renal = test system: A498 renal
SR leukemia = test system: SR leukemia
PC-3 prostate = test system: PC-3 prostate
RPMI-8226 leukemia = test system: RPMI-8226 leukemia
NCI-H23 lung = test system: NCI-H23 lung
HOP-92 NSCLC = test system: HOP-92 NSCLC

`CN1CCN(CCCCCOc2cc(O)c3c(=O)cc(-c4ccccc4)oc3c2)CC1` gave a GI50 (RXF 393 renal) of 1.96 µM, a TGI (RXF 393 renal) of 5.97 µM and a GI50 (SF-268 CNS) of 11.7 µM. For the same compound, the TGI (SF-268 CNS) was > 100 µM, the GI50 (NCI/ADR-RES ovarian) was 14.9 µM and the TGI (NCI/ADR-RES ovarian) was 54.4 µM. For the same compound, the GI50 (KM12 colon) was 2.84 µM, the TGI (KM12 colon) was 9.66 µM and the GI50 (SW-620 colon) was 2.61 µM. The TGI (SW-620 colon) was 7.53 µM, the GI50 (HOP-62 NSCLC) was 2.96 µM and the TGI (HOP-62 NSCLC) was 8.54 µM. The GI50 (UACC-257 melanoma) was 2.03 µM, the TGI (UACC-257 melanoma) was 3.78 µM and the GI50 (SK-OV-3 ovarian) was 3.62 µM. The TGI (SK-OV-3 ovarian) was 16.9 µM, the GI50 (NCI-H460 lung) was 3.27 µM and the TGI (NCI-H460 lung) was 11.3 µM. It also gave a GI50 (M14 melanoma) of 1.71 µM, a TGI (M14 melanoma) of 3.09 µM and a GI50 (ACHN renal) of 1.91 µM. For the same compound, the TGI (ACHN renal) was 3.87 µM, the GI50 (SNB-75 CNS) was 30.5 µM and the TGI (SNB-75 CNS) was 54.9 µM. It also gave a GI50 (SF-539 CNS) of 2.81 µM, a TGI (SF-539 CNS) of 7.87 µM and a GI50 (TK-10 renal) of 12 µM. The TGI (TK-10 renal) was 39.4 µM, the GI50 (SNB-19 CNS) was 4.11 µM and the TGI (SNB-19 CNS) was 22.3 µM. The GI50 (HCC-2998 colon) was 0.239 µM, the TGI (HCC-2998 colon) was 4.9 µM and the GI50 (MOLT-4 leukemia) was 3.27 µM. The TGI (MOLT-4 leukemia) was 12.4 µM, the GI50 (NCI-H522 lung) was 2.59 µM and the TGI (NCI-H522 lung) was 6.71 µM. It also gave a GI50 (MDA-MB-231 breast) of 1.12 µM, a TGI (MDA-MB-231 breast) of 4.53 µM and a GI50 (IGROV1 ovarian) of 2.41 µM. For the same compound, the TGI (IGROV1 ovarian) was 5.64 µM, the GI50 (HS 578T breast) was 18.1 µM and the TGI (HS 578T breast) was 51.9 µM. The GI50 (BT-549 breast) was 13.4 µM, the TGI (BT-549 breast) was 29.7 µM and the GI50 (UACC-62 melanoma) was 1.86 µM. For the same compound, the TGI (UACC-62 melanoma) was 3.26 µM, the GI50 (HT29 colon) was 2.86 µM and the TGI (HT29 colon) was 8.12 µM. The GI50 (UO-31 renal) was 1.71 µM, the TGI (UO-31 renal) was 3.55 µM and the GI50 (K-562 leukemia) was 1.8 µM. For the same compound, the TGI (K-562 leukemia) was 3.68 µM, the GI50 (LOX IMVI melanoma) was 1.6 µM and the TGI (LOX IMVI melanoma) was 2.95 µM. It also gave a GI50 (OVCAR-4 ovarian) of 19.1 µM, a TGI (OVCAR-4 ovarian) of 77.7 µM and a GI50 (SF-295 CNS) of 2.05 µM. For the same compound, the TGI (SF-295 CNS) was 4.16 µM, the GI50 (HCT-15 colon) was 1.79 µM and the TGI (HCT-15 colon) was 4.02 µM. The GI50 (EKVX NSCLC) was 10.2 µM, the TGI (EKVX NSCLC) was > 100 µM and the GI50 (U251 CNS) was 1.98 µM. It also gave a TGI (U251 CNS) of 4.86 µM, a GI50 (COLO 205 colon) of 1.63 µM and a TGI (COLO 205 colon) of 3.06 µM. For the same compound, the GI50 (DU-145 prostate) was 10.5 µM, the TGI (DU-145 prostate) was > 100 µM and the GI50 (SK-MEL-28 melanoma) was 2.22 µM. The TGI (SK-MEL-28 melanoma) was 4.25 µM, the GI50 (MDA-MB-435) was 2.32 µM and the TGI (MDA-MB-435) was 5.33 µM. For the same compound, the GI50 (HCT-116 colon) was 1.74 µM, the TGI (HCT-116 colon) was 4.08 µM and the GI50 (OVCAR-5 ovarian) was 4 µM. For the same compound, the TGI (OVCAR-5 ovarian) was 22.2 µM, the GI50 (NCI-H226 lung) was 22 µM and the TGI (NCI-H226 lung) was 46.4 µM. It also gave a GI50 (SN12C renal) of 11.8 µM, a TGI (SN12C renal) of 27.6 µM and a GI50 (HL-60(TB) leukemia) of 3.04 µM. For the same compound, the TGI (HL-60(TB) leukemia) was 8.63 µM, the GI50 (MALME-3M melanoma) was 0.898 µM and the TGI (MALME-3M melanoma) was 4.31 µM. The GI50 (OVCAR-3 ovarian) was 3.45 µM, the TGI (OVCAR-3 ovarian) was 8.1 µM and the GI50 (OVCAR-8 ovarian) was 15.7 µM. For the same compound, the TGI (OVCAR-8 ovarian) was 91.7 µM, the GI50 (A549 NSCLC) was 8.18 µM and the TGI (A549 NSCLC) was 26.3 µM. It also gave a GI50 (SK-MEL-2 melanoma) of 3.04 µM, a TGI (SK-MEL-2 melanoma) of 8.76 µM and a GI50 (786-0 renal) of 12.4 µM. The TGI (786-0 renal) was 26.6 µM, the GI50 (SK-MEL-5 melanoma) was 3.13 µM and the TGI (SK-MEL-5 melanoma) was 10.3 µM. For the same compound, the GI50 (MCF7 breast) was 3.45 µM, the TGI (MCF7 breast) was 11.3 µM and the GI50 (A498 renal) was 24.3 µM. The TGI (A498 renal) was 42.8 µM.
`CC=C/C=C/[C@@H]1O[C@](O)([C@H](CC)C(=O)NC/C=C/C=C(\C)[C@@H](OC)[C@@H](C)[C@@H]2O[C@H](/C=C/C=C/C=C(\C)C(=O)c3c(O)cc[nH]c3=O)[C@H](O)[C@@H]2O)[C@H](O)[C@H](O)C1(C)C` was tested, and the TGI (SR leukemia) was > 100 µM, the TGI (SF-268 CNS) was > 100 µM and the TGI (NCI/ADR-RES ovarian) was > 100 µM. The TGI (KM12 colon) was > 100 µM, the TGI (SW-620 colon) was > 100 µM and the TGI (HOP-62 NSCLC) was > 100 µM. The TGI (UACC-257 melanoma) was > 100 µM, the TGI (SK-OV-3 ovarian) was > 100 µM and the TGI (NCI-H460 lung) was > 100 µM. For the same compound, the TGI (M14 melanoma) was > 100 µM, the TGI (ACHN renal) was > 100 µM and the TGI (SNB-75 CNS) was > 100 µM. For the same compound, the TGI (SF-539 CNS) was > 100 µM, the TGI (TK-10 renal) was > 100 µM and the TGI (SNB-19 CNS) was > 100 µM. For the same compound, the TGI (HCC-2998 colon) was > 100 µM, the TGI (MOLT-4 leukemia) was > 100 µM and the TGI (NCI-H522 lung) was > 100 µM. The TGI (PC-3 prostate) was > 100 µM, the TGI (IGROV1 ovarian) was > 100 µM and the TGI (HS 578T breast) was > 100 µM. The TGI (UACC-62 melanoma) was > 100 µM, the TGI (RPMI-8226 leukemia) was > 100 µM and the TGI (HT29 colon) was > 100 µM. The TGI (UO-31 renal) was > 100 µM, the TGI (K-562 leukemia) was > 100 µM and the TGI (NCI-H23 lung) was > 100 µM. For the same compound, the TGI (OVCAR-4 ovarian) was > 100 µM, the TGI (SF-295 CNS) was > 100 µM and the TGI (HCT-15 colon) was > 100 µM. The TGI (EKVX NSCLC) was > 100 µM, the TGI (U251 CNS) was > 100 µM and the TGI (SK-MEL-28 melanoma) was > 100 µM. The TGI (MDA-MB-435) was > 100 µM, the TGI (HOP-92 NSCLC) was > 100 µM and the TGI (OVCAR-5 ovarian) was > 100 µM. The TGI (HL-60(TB) leukemia) was > 100 µM, the TGI (MALME-3M melanoma) was > 100 µM and the TGI (OVCAR-3 ovarian) was > 100 µM. The TGI (OVCAR-8 ovarian) was > 100 µM, the TGI (A549 NSCLC) was > 100 µM and the TGI (SK-MEL-2 melanoma) was > 100 µM. For the same compound, the TGI (MCF7 breast) was > 100 µM and the TGI (A498 renal) was > 100 µM.
